Source: US20260042731A1, “(2,4-DICHLOROPHENOXY)ACETIC ACID ANALOGS” (CORTEVA AGRISCIENCE LLC, priority 2022, published 2026)
Where “and” joins values, the source holds several entries; their conditions need not be identical. Identical values can stand only once. Like-named read-outs stand apart in the source and are kept apart here.

Key:
[1] = system: weeds (ABUTH, AMATA, AMBEL, CHEAL, ERICA); experiment: Postemergence herbicide evaluation, overall average % weed control across ABUTH, AMATA, AMBEL, CHEAL, ERICA; type: in vivo; conditions: post-emergence, average over the five weeds, read-out: Overall Ave % Weed Control; for pest or weed control at 280 g/ha: 280 g ae/ha; for pest or weed control at 560 g/ha: 560 g ae/ha
[2] = system: Chenopodium album (CHEAL), common lambsquarters; experiment: Postemergence herbicide evaluation, growth of Chenopodium album (CHEAL); type: in vivo; conditions: for Ave. CHEAL, percent reduction in plant size relative to the untreated control: 21 DAA; for pest or weed control at 280 g/ha / pest or weed control at 560 g/ha: Chenopodium album, post-emergence, percent reduction in plant size relative to untreated control, read-out: Ave. CHEAL
[3] = system: Amaranthus rudis (AMATA), tall water hemp; experiment: Postemergence herbicide evaluation, growth of Amaranthus rudis (AMATA); type: in vivo; conditions: for Ave. AMATA, percent reduction in plant size relative to the untreated control: 21 DAA; for pest or weed control at 280 g/ha / pest or weed control at 560 g/ha: Amaranthus tuberculatus, post-emergence, percent reduction in plant size relative to untreated control, read-out: Ave. AMATA
[4] = system: glyphosate resistant Conyza canadensis (L.) (ERICA), horseweed; experiment: Postemergence herbicide evaluation, growth of Conyza canadensis (ERICA); type: in vivo; conditions: for Ave. ERICA, percent reduction in plant size relative to the untreated control: 21 DAA; for pest or weed control at 280 g/ha / pest or weed control at 560 g/ha: Erigeron canadensis, post-emergence, percent reduction in plant size relative to untreated control, read-out: Ave. ERICA
[5] = Volatility of compounds measured by thermogravimetric analysis (TGA); type: physicochemical
[6] = system: Abutilon theophrasti (ABUTH), velvetleaf; experiment: Postemergence herbicide evaluation, growth of Abutilon theophrasti (ABUTH); type: in vivo; conditions: for AVE. ABUTH, percent reduction in plant size relative to the untreated control: 21 DAA; for pest or weed control at 280 g/ha / pest or weed control at 560 g/ha: Abutilon theophrasti, post-emergence, percent reduction in plant size relative to untreated control, read-out: AVE. ABUTH
[7] = system: Ambrosia artemisiifolia (AMBEL), common ragweed; experiment: Postemergence herbicide evaluation, growth of Ambrosia artemisiifolia (AMBEL); type: in vivo; conditions: for AVE. AMBEL, percent reduction in plant size relative to the untreated control: 21 DAA; for pest or weed control at 280 g/ha / pest or weed control at 560 g/ha: Ambrosia artemisiifolia, post-emergence, percent reduction in plant size relative to untreated control, read-out: AVE. AMBEL
[8] = system: ABUTH, AMATA, AMBEL, CHEAL, ERICA weeds; experiment: Postemergence herbicide evaluation, overall average % weed control across ABUTH, AMATA, AMBEL, CHEAL, ERICA; type: in vivo; conditions: 21 DAA
Text: For example, the pesticidal activity may include herbicidal activity.

Corn (ZEAMX) = experiment: Greenhouse post-emergence mixture trials, percent visual control; type: in vivo; conditions: Trial Bridge 2, ZEAMX, 21 DAA
[9] = system: Common Lambsquarters (CHEAL); experiment: as above; type: in vivo; conditions: CHEAL, 21 DAA
Tall Waterhemp (AMATA) = experiment: as above; type: in vivo; conditions: Trial Bridge 2, 21 DAA
Horseweed (ERICA) = experiment: as above; type: in vivo; conditions: 21 DAA
Velvetleaf (ABUTH) = experiment: as above; type: in vivo; conditions: Trial Bridge 2, ABUTH, 21 DAA, compound 0 g ae/ha
[10] = Trifludimoxazin 12.5 g ai or ae/ha alone (B2 rate 0)
[11] = Trifludimoxazin 25 g ai or ae/ha alone (B2 rate 0)
[12] = Trifludimoxazin 50 g ai or ae/ha alone (B2 rate 0)
[13] = Trial Bridge 2, Trifludimoxazin 25 g ai or ae/ha alone (B2 rate 0)
[14] = Trial Bridge 2, Trifludimoxazin 50 g ai or ae/ha alone (B2 rate 0)

SMILES: N/C(Cc1ccccc1)=N\OC(=O)COc1ccc(Cl)cc1Cl [Compound A17, N′-(2-(2,4-Dichlorophenoxy)acetoxy)-2-phenylacetimidamide]
- pest or weed control at 280 g/ha ([1]; 168 h, 7 DAA): 64%
- pest or weed control at 560 g/ha ([1]; 168 h, 7 DAA): 70%
- pest or weed control at 280 g/ha ([1]; 336 h, 14 DAA): 78%
- pest or weed control at 560 g/ha ([1]; 336 h, 14 DAA): 85%
- Ave. CHEAL, percent reduction in plant size relative to the untreated control ([2]; 280 g ae/ha): 85%
- Ave. CHEAL, percent reduction in plant size relative to the untreated control ([2]; 560 g ae/ha): 90%
- pest or weed control at 280 g/ha ([2]; 168 h, 280 g ae/ha, 7 DAA): 70%
- pest or weed control at 560 g/ha ([2]; 168 h, 560 g ae/ha, 7 DAA): 68%
- pest or weed control at 280 g/ha ([2]; 336 h, 280 g ae/ha, 14 DAA): 78%
- pest or weed control at 560 g/ha ([2]; 336 h, 560 g ae/ha, 14 DAA): 85%
- Ave. AMATA, percent reduction in plant size relative to the untreated control ([3]; 280 g ae/ha): 83%
- Ave. AMATA, percent reduction in plant size relative to the untreated control ([3]; 560 g ae/ha): 89%
- pest or weed control at 280 g/ha ([3]; 168 h, 280 g ae/ha, 7 DAA): 73%
- pest or weed control at 560 g/ha ([3]; 168 h, 560 g ae/ha, 7 DAA): 70%
- pest or weed control at 280 g/ha ([3]; 336 h, 280 g ae/ha, 14 DAA): 78%
- pest or weed control at 560 g/ha ([3]; 336 h, 560 g ae/ha, 14 DAA): 80%
- Ave. ERICA, percent reduction in plant size relative to the untreated control ([4]; 280 g ae/ha): 97%
- Ave. ERICA, percent reduction in plant size relative to the untreated control ([4]; 560 g ae/ha): 94%
- pest or weed control at 280 g/ha ([4]; 168 h, 280 g ae/ha, 7 DAA): 65%
- pest or weed control at 560 g/ha ([4]; 168 h, 560 g ae/ha, 7 DAA): 65%
- pest or weed control at 280 g/ha ([4]; 336 h, 280 g ae/ha, 14 DAA): 85%
- pest or weed control at 560 g/ha ([4]; 336 h, 560 g ae/ha, 14 DAA): 83%
- TGA Data (rate of weight loss, volatility) [5]: 4.1 µg/min
- AVE. ABUTH, percent reduction in plant size relative to the untreated control ([6]; 280 g ae/ha): 65%
- AVE. ABUTH, percent reduction in plant size relative to the untreated control ([6]; 560 g ae/ha): 83%
- pest or weed control at 280 g/ha ([6]; 168 h, 280 g ae/ha, 7 DAA): 48%
- pest or weed control at 560 g/ha ([6]; 168 h, 560 g ae/ha, 7 DAA): 68%
- pest or weed control at 280 g/ha ([6]; 336 h, 280 g ae/ha, 14 DAA): 65%
- pest or weed control at 560 g/ha ([6]; 336 h, 560 g ae/ha, 14 DAA): 80%
- AVE. AMBEL, percent reduction in plant size relative to the untreated control ([7]; 280 g ae/ha): 92%
- AVE. AMBEL, percent reduction in plant size relative to the untreated control ([7]; 560 g ae/ha): 99%
- pest or weed control at 280 g/ha ([7]; 168 h, 280 g ae/ha, 7 DAA): 65%
- pest or weed control at 560 g/ha ([7]; 168 h, 560 g ae/ha, 7 DAA): 80%
- pest or weed control at 280 g/ha ([7]; 336 h, 280 g ae/ha, 14 DAA): 86%
- pest or weed control at 560 g/ha ([7]; 336 h, 560 g ae/ha, 14 DAA): 96%
- Overall Ave % Weed Control ([8]; 280 g ae/ha): 84%
- Overall Ave % Weed Control ([8]; 560 g ae/ha): 91%

SMILES: C#CCN1C(=O)C(F)(F)Oc2cc(F)c(-n3c(=O)n(C)c(=S)n(C)c3=O)cc21 [Trifludimoxazin, trifludimoxazin]
- % Control (Corn (ZEAMX); [10]): 5% and 10%
- % Control (Corn (ZEAMX); [11]): 15% and 5% and 10%
- % Control (Corn (ZEAMX); [12]): 15% and 20% and 10%
- % Control ([9]; Trial Bridge 2, Trifludimoxazin 12.5 g ai or ae/ha alone (B2 rate 0)): 100%
- % Control [9, 13]: 100%
- % Control [9, 14]: 100%
- % Control (Tall Waterhemp (AMATA); [10]): 100%
- % Control (Tall Waterhemp (AMATA); [11]): 100%
- % Control (Tall Waterhemp (AMATA); [12]): 100%
- % Control (Horseweed (ERICA); [13]): 25% and 30%
- % Control (Horseweed (ERICA); [14]): 30% and 25%
- % Control (Velvetleaf (ABUTH); Trifludimoxazin alone 12.5 g ai or ae/ha): 100%
- % Control (Velvetleaf (ABUTH); Trifludimoxazin alone 25 g ai or ae/ha): 100%
- % Control (Velvetleaf (ABUTH); Trifludimoxazin alone 50 g ai or ae/ha): 100%
